The target of one experiment is MIF (Homo sapiens (Human), UniProt P14174). The experiment in a line: MIF tautomerase assay using pHPP as substrate. Type of experiment: biochemical. The conditions noted are these: cell-free, pHPP substrate 1.5 mM, MIF 3 nM; mean pIC50 of multiple test results. The protocol:
Tautomerase Assay Using pHPP as substrate
This assay measured MIF's tautomerase activity in a cell-free system and was based on the determination of initial rates of the MIF-catalyzed conversion of the ketonic into the enolic tautomer of pHPP. This was achieved by spectrophotometric quantification of the complex between borate and the product of the reaction (enolic pHPP). The substrate was prepared by conversion of the enolic pHPP into its ketonic form. To achieve this, 0.5 M pHPP in methanol was diluted 10-fold with 50 mM sodium acetate buffer at pH 6.0, and then the suspension was shaken for 24 h at room temperature in darkness, and finally stored at 4° C. for not more than 1 week, with 5 min sonication being recommended before use.
Assays were performed in small-volume clear-bottom black 96 or 384-well polystyrene plates (Greiner Bio-One). First, 2 μL of the enzyme solution containing 6 nM of MIF in DPBS, 0.025% w/v BSA, and 300 μM CHAPS was dispensed onto sample and negative control wells using Multidrop Combi with metallic tip cassettes (Thermo Fisher Scientific) previously treated with Sigmacote. Then, 2 μL of the same buffer without MIF was dispensed onto positive control wells. The reaction was started by addition of the following to all wells: 2 μL of substrate solution containing 3 mM ketonic pHPP in 200 mM boric acid, 25 mM sodium phosphate, 0.025% w/v BSA, and 300 μM CHAPS at pH 6.0. In order to remove bubbles, the plate was centrifuged in an Allegra 25R centrifuge (Beckman Coulter, Inc., Brea, CA) at 1000 rpm for 2 min at room temperature. Then, the plate was read in an EnVision. Final concentrations of enzyme and substrate were 3 nM and 1.5 mM, respectively. Initial rates were calculated for each well as the slope of the absorbance progress curve.
The data mentioned below represents a mean pIC50 value of multiple test results. It is understood that the data illustrated below may have reasonable variation depending on the specific conditions and procedures used by the person conducting the testing.

The next experiment concerns BV2 cells. The experiment in a line: BV2 cell proliferation assay (CCK-8). The class given is cell-based. The conditions noted are these: Mus musculus, BV-2, 48 h treatment, CCK-8, top concentration 33.3 μM, mean pIC50 of multiple test results, read-out: BV2 Profileration pIC50 (converted). An excerpt: (§1) The assay measures the ability of a compound to inhibit cell proliferation using Cell Counting Kit-8 (CCK-8), which allows sensitive colorimetric assays for the determination of cell viability in cell proliferation and cytotoxicity assays. The highly water-soluble tetrazolium salt, WST-8, is reduced by dehydrogenase activities in cells to give a yellow-color formazan dye, which is soluble in the tissue culture media. The amount of the formazan dye, generated by the activities of dehydrogenases in cells, is directly proportional to the number of living cells.
(§2) The assay was performed based on the instruction of the manufacturer (Dojindo Molecular Technologies Inc., Rockville, MD, USA). To start the assay, BV2 cells were seeded at a density of […] into 96-well plates and treated with test compounds, which were used at a top final assay concentration of 33.3 μM, diluted in assay medium with 1:3 dilutions to produce 10 point concentration responses, for 48 h. After incubation, the CCK-8 solution (10 μl) was added to each well of the plate and the plates were incubated in incubator at 37° C. for 3 h. Absorbance was recorded three times independently using a microplate reader (Bio-Rad Laboratories, Richmond, CA, USA) at 450 nm.
Selected examples were tested in the BV2 cell proliferation. The data mentioned below represents a mean pIC50 value of multiple test results. It is understood that the data illustrated below may have reasonable variation depending on the specific conditions and procedures used by the person conducting the testing.

The test system of the next experiment is U251 cell. The experiment in a line: U251 cell proliferation assay (CCK-8). The following applies: Homo sapiens, U-251; U251 cells; read-out: U251 Profileration pIC50 (converted). Type of experiment: cell-based.
Source text: [The source words this procedure for another cell line and reports this cell line under the same test.] as §1, §2

Data on 23 compounds can be found in patent US11884682B2, “Compounds and their uses as MIF inhibitors” (NANJING IMMUNOPHAGE BIOTECH CO., LTD., priority 2020, dated 2024).

Some results are limits rather than exact numbers.

Sequence of MIF (P14174 2-115): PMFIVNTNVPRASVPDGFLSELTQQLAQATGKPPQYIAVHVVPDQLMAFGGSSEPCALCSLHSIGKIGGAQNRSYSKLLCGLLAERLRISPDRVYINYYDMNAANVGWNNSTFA

As for `COc1cc(OCCO)ccc1C(=O)Nc1nnc(-c2cccs2)o1` [Compound 17, 4-(2-hydroxyethoxy)-2-methoxy-N-(5-(thiophen-2-yl)-1,3,4-oxadiazol-2-yl)benzamide], the “Tautomerase Inhibition pIC50” value on MIF was 7.98. Besides, the results for the IC50 in the experiment on BV2 cells and in the experiment on U251 cell were 11.5 µM and above 1000 µM, respectively.
Consider `COc1cc(OCC(=O)O)ccc1C(=O)Nc1nnc(-c2cccs2)o1` [Compound 19, 2-(3-methoxy-4-((5-(thiophen-2-yl)-1,3,4-oxadiazol-2-yl)carbamoyl)phenoxy)acetic acid], for which the IC50 in the experiment with BV2 cells and in the experiment on U251 cell was above 1000 µM each time.
As for `COc1cc(OC(C)(C)C(=O)O)ccc1C(=O)Nc1nnc(-c2cccs2)o1` [Compound 21, 2-(3-methoxy-4-((5-(thiophen-2-yl)-1,3,4-oxadiazol-2-yl)carbamoyl)phenoxy)-2-methyl propanoic acid], the IC50 with BV2 cells and in the experiment with U251 cell was above 1000 µM each time.
As for `COc1cc(OCc2nn[nH]n2)ccc1C(=O)Nc1nnc(-c2cccs2)o1` [Compound 22, 4-((2H-tetrazol-5-yl)methoxy)-2-methoxy-N-(5-(thiophen-2-yl)-1,3,4-oxadiazol-2-yl)benzamide], on MIF, the “Tautomerase Inhibition pIC50” value is recorded as 7.91. In addition, the IC50 in the experiment with BV2 cells and in the experiment with U251 cell was above 1000 µM in each case.
Turning to `O=C(NCc1nnc(-c2cccs2)o1)c1ccccc1F` [Compound 44, 2-fluoro-N-((5-(thiophen-2-yl)-1,3,4-oxadiazol-2-yl)methyl)benzamide], the “Tautomerase Inhibition pIC50” value on MIF was below 5. Moreover, the IC50 is 45.7 µM in the experiment on BV2 cells and above 1000 µM in the experiment on U251 cell.
With `COc1cccc(OC)c1C(=O)NCc1nnc(-c2cccs2)o1` [Compound 46, 2,6-dimethoxy-N-((5-(thiophen-2-yl)-1,3,4-oxadiazol-2-yl)methyl)benzamide], at MIF, the “Tautomerase Inhibition pIC50” value was 3.70. Also, the IC50 in the experiment on BV2 cells and in the experiment on U251 cell was above 1000 µM in each case.
For the compound `COc1cc(N2CCOCC2)ccc1C(=O)NCc1nnc(-c2cccs2)o1` [Compound 51, 2-methoxy-4-morpholino-N-((5-(thiophen-2-yl)-1,3,4-oxadiazol-2-yl)methyl)benzamide], the “Tautomerase Inhibition pIC50” value at MIF is recorded as 6.29. Moreover, the IC50 was 13.2 µM in the experiment with BV2 cells and above 1000 µM with U251 cell.
`COc1cc(N2CCOCC2)ccc1C(=O)N(C)Cc1nnc(-c2cccs2)o1` [Compound 52, 2-methoxy-N-methyl-4-morpholino-N-((5-(thiophen-2-yl)-1,3,4-oxadiazol-2-yl)methyl)benzamide]: the “Tautomerase Inhibition pIC50” value at MIF is 4.20. For the same compound, the IC50 is 3.63 µM in the experiment with BV2 cells and above 1000 µM with U251 cell.
The corresponding values for `COc1cc(N2CCCCC2)ccc1C(=O)NCc1nnc(-c2cccs2)o1` [Compound 56, 2-methoxy-4-(piperidin-1-yl)-N-((5-(thiophen-2-yl)-1,3,4-oxadiazol-2-yl)methyl)benzamide] are 6.13, 16.2 µM and above 1000 µM.
Take `COc1cc(N2CCNCC2)ccc1C(=O)NCc1nnc(-c2cccs2)o1` [Compound 58, 2-methoxy-4-(piperazin-1-yl)-N-((5-(thiophen-2-yl)-1,3,4-oxadiazol-2-yl)methyl)benzamide]: the “Tautomerase Inhibition pIC50” value at MIF was found to be 5.95. For the same compound, the figures for the IC50 in the experiment on BV2 cells and in the experiment with U251 cell were 35.5 µM and above 1000 µM, respectively.
`COc1cc(N2CCN(C)CC2)ccc1C(=O)NCc1nnc(-c2cccs2)o1` [Compound 59, 2-methoxy-4-(4-methylpiperazin-1-yl)-N-((5-(thiophen-2-yl)-1,3,4-oxadiazol-2-yl)methyl)benzamide]: the “Tautomerase Inhibition pIC50” value on MIF was 5.90. Further, the IC50 in the experiment with BV2 cells was 40.7 µM; in the experiment with U251 cell it was above 1000 µM.
`COc1cc(N2CCOCC2)ccc1C(=O)NCc1nnc(-c2ccccc2)o1` [Compound 63, 2-methoxy-4-morpholino-N-((5-phenyl-1,3,4-oxadiazol-2-yl)methyl)benzamide]: the “Tautomerase Inhibition pIC50” value at MIF is below 5. Moreover, the IC50 was 21.4 µM with BV2 cells and above 1000 µM in the experiment with U251 cell.
As to `COc1cc(OCCN2CCOCC2)ccc1C(=O)NCc1nnc(-c2cccs2)o1` [Compound 69, 2-methoxy-4-(2-morpholinoethoxy)-N-((5-(thiophen-2-yl)-1,3,4-oxadiazol-2-yl)methyl)benzamide], the figures for the IC50 in the experiment with BV2 cells and with U251 cell were 44.7 µM and above 1000 µM, respectively.
As to `O=C1c2ccccc2CCN1Cc1nnc(-c2cccs2)o1` [Compound 72, 2-((5-(thiophen-2-yl)-1,3,4-oxadiazol-2-yl)methyl)-3,4-dihydroisoquinolin-1(2H)-one], on MIF, the “Tautomerase Inhibition pIC50” value is given as below 5. In addition, the IC50 in the experiment with BV2 cells was 123 µM; in the experiment with U251 cell it was above 1000 µM.
Regarding `O=C1c2ccc(Br)cc2CCN1Cc1nnc(-c2cccs2)o1` [Compound 73, 6-bromo-2-((5-(thiophen-2-yl)-1,3,4-oxadiazol-2-yl)methyl)-3,4-dihydroisoquinolin-1(2H)-one], the “Tautomerase Inhibition pIC50” value on MIF was below 5. Also, the results for the IC50 in the experiment with BV2 cells and with U251 cell were 23.4 µM and above 1000 µM, respectively.
For the compound `O=C1c2ccc(N3CCOCC3)cc2CCN1Cc1nnc(-c2cccs2)o1` [Compound 74, 6-morpholino-2-((5-(thiophen-2-yl)-1,3,4-oxadiazol-2-yl)methyl)-3,4-dihydroisoquinolin-1(2H)-one], the “Tautomerase Inhibition pIC50” value at MIF is listed as below 5. Also, the IC50 with BV2 cells is 25.1 µM; in the experiment on U251 cell it was above 1000 µM.
Take `COc1cc(N2CCOCC2)ccc1NC(=O)c1nnc(-c2cccs2)o1` [Compound 75, N-(2-methoxy-4-morpholinophenyl)-5-(thiophen-2-yl)-1,3,4-oxadiazole-2-carboxamide]: the “Tautomerase Inhibition pIC50” value at MIF is below 5. In addition, the IC50 was 28.2 µM in the experiment on BV2 cells and above 1000 µM in the experiment on U251 cell.
For the compound `COc1cc(NC2CCN(C)C2)ccc1C(=O)NCc1nnc(-c2cccs2)o1` (stereo not shown) [Compound 76, 2-methoxy-4-((1-methylpyrrolidin-3-yl)amino)-N-((5-(thiophen-2-yl)-1,3,4-oxadiazol-2-yl)methyl)benzamide], the “Tautomerase Inhibition pIC50” value at MIF turned out to be 1.77. The IC50 in the experiment on BV2 cells and in the experiment with U251 cell was above 1000 µM in each case.
Consider `COc1cc(N2CCC(O)C2)ccc1C(=O)NCc1nnc(-c2cccs2)o1` (stereo not shown) [Compound 78, 4-(3-hydroxypyrrolidin-1-yl)-2-methoxy-N-((5-(thiophen-2-yl)-1,3,4-oxadiazol-2-yl)methyl)benzamide], for which the IC50 in the experiment with BV2 cells is 79.4 µM; in the experiment on U251 cell, above 1000 µM.
For `COc1cc(NCCO)ccc1C(=O)NCc1nnc(-c2cccs2)o1` [Compound 79, 4-((2-hydroxyethyl)amino)-2-methoxy-N-((5-(thiophen-2-yl)-1,3,4-oxadiazol-2-yl)methyl)benzamide], the IC50 with BV2 cells and in the experiment with U251 cell was above 1000 µM throughout.
Turning to `CNCCOc1ccc(C(=O)NCc2nnc(-c3cccs3)o2)c(OC)c1` [Compound 80, 2-methoxy-4-(2-(methylamino)ethoxy)-N-((5-(thiophen-2-yl)-1,3,4-oxadiazol-2-yl)methyl)benzamide], the figures for the IC50 with BV2 cells and in the experiment on U251 cell were 26.3 µM and above 1000 µM, respectively.
For `COc1cc(OC2CCNC2)ccc1C(=O)NCc1nnc(-c2cccs2)o1` (stereo not shown) [Compound 81, 2-methoxy-4-(pyrrolidin-3-yloxy)-N-((5-(thiophen-2-yl)-1,3,4-oxadiazol-2-yl)methyl)benzamide], the results for the IC50 in the experiment on BV2 cells and in the experiment with U251 cell were above 1000 µM and 35.5 µM, respectively.
On the same counts, the results for `COc1cc(C(C)(C)O)ccc1C(=O)NCc1nnc(-c2cccs2)o1` [Compound 83, 4-(2-hydroxypropan-2-yl)-2-methoxy-N-((5-(thiophen-2-yl)-1,3,4-oxadiazol-2-yl)methyl)benzamide] are above 1000 µM and above 1000 µM.
